Measurements taken from ChEMBL document CHEMBL1201862, “PubChem BioAssay data set” (2004).
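These data come from cells grown in 96-well plates and exposed to compound for 48 hours at five concentrations. GI50: concentration for 50% inhibition of growth.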 Active and inactive are the calls of the source. Rule as the data show it: active = GI50 up to about 1.1 µM and inactive = higher. *1 amine or outer side, *2 acyl side, *3 side chain or, on linkers, in order; H or OH if unused. Where a SMILES comes first, the peptide text is derived from it. Bridges are numbered along the chain shown (N, C = ends). Roman numbers before positions name the chains, in order. [ ]: non-standard residue; d: D form. Actinocin(1to9) = Cc1c2oc3c(C)ccc(C(=O)[*:2])c3nc-2c(C(=O)[*:1])c(N)c1=O; NMeV = CN[CH](C(=O)O)C(C)C; Sar = CNCC(=O)O

How the values were obtained:
Assay in all cases: NCI-60 cell line screen, 48 h
SK-OV-3 = system: SK-OV-3
RPMI-8226 = system: RPMI-8226
ACHN = system: ACHN
K562 = system: K562
OVCAR-8 = system: OVCAR-8
MCF7 = system: MCF7
SW-620 = system: SW-620
CAKI-1 = system: CAKI-1
SR = system: SR
786-0 = system: 786-0
SNB-75 = system: SNB-75
HCT-15 = system: HCT-15
HOP-62 = system: HOP-62
TK-10 = system: TK-10
NCI/ADR-RES = system: NCI/ADR-RES
Malme-3M = system: Malme-3M
CCRF-CEM = system: CCRF-CEM
OVCAR-3 = system: OVCAR-3
SK-MEL-5 = system: SK-MEL-5
COLO 205 = system: COLO 205

SMILES | GI50 (SK-OV-3) | GI50 (RPMI-8226) | GI50 (ACHN) | GI50 (K562) | GI50 (OVCAR-8) | GI50 (MCF7) | GI50 (SW-620) | GI50 (CAKI-1) | GI50 (SR) | GI50 (786-0) | GI50 (SNB-75) | GI50 (HCT-15) | GI50 (HOP-62) | GI50 (TK-10) | GI50 (NCI/ADR-RES) | GI50 (Malme-3M) | GI50 (CCRF-CEM) | GI50 (OVCAR-3) | GI50 (SK-MEL-5) | GI50 (COLO 205)
O=c1c2ccccc2[nH]c(=S)n1-c1ccc(/N=N/c2cccc3cc(O)ccc23)cc1 | > 100 µM (inactive) | > 100 µM (inactive) | > 100 µM (inactive) | 73.6 µM (inactive) | > 100 µM (inactive) | 27 µM (inactive) | > 100 µM (inactive) | > 100 µM (inactive) | 94.6 µM (inactive) | 65.5 µM (inactive) | > 100 µM (inactive) | 36.3 µM | > 100 µM (inactive) | > 100 µM (inactive) | > 100 µM (inactive) | > 100 µM (inactive) | > 100 µM (inactive) | > 100 µM (inactive) | 31.8 µM (inactive) | 44.5 µM (inactive)
CC(C)(C)c1cc2c(O)c(c1)Cc1cc(C(C#N)(Cc3ccc4ccccc4c3)Cc3ccc4ccccc4c3)cc(c1O)Cc1cc(C(C)(C)C)cc(c1O)Cc1cc(C(C#N)(Cc3ccc4ccccc4c3)Cc3ccc4ccccc4c3)cc(c1O)C2 | > 100 µM (inactive) | > 100 µM (inactive) | > 100 µM (inactive) | > 100 µM (inactive) | > 100 µM (inactive) | > 100 µM (inactive) | > 100 µM (inactive) | > 100 µM (inactive) | 60.5 µM (inactive) | > 100 µM (inactive) | > 100 µM (inactive) | > 100 µM | > 100 µM (inactive) | > 100 µM (inactive) | > 100 µM (inactive) | > 100 µM (inactive) | > 100 µM (inactive) | > 100 µM (inactive) | > 100 µM (inactive) | > 100 µM (inactive)
CCOC(=O)/C=C(\C(=O)OCC)n1cc(C)c(=O)n(Cc2cnnn2CCCCOC(C)=O)c1=O | > 62.4 µM (inactive) | 7.36 µM (inactive) | 2.06 µM (inactive) | 2.64 µM (inactive) | 3.37 µM (inactive) | 4.78 µM (inactive) | 2.32 µM (inactive) | 3.23 µM (inactive) | 1.9 µM (inactive) | 2.96 µM (inactive) | 18 µM (inactive) | 2.84 µM | 27 µM (inactive) | 5.94 µM (inactive) | 8.79 µM (inactive) | 1.82 µM (inactive) | 0.661 µM (active) | 13.3 µM (inactive) | 17.1 µM (inactive) | 2.09 µM (inactive)
Cc1c2cc[n+](C)cc2c(C)c2c1[nH]c1ccc(Cl)cc12 | 1.2 µM (inactive) | 25 µM (inactive) | 3.78 µM (inactive) | 2.21 µM (inactive) | 0.298 µM (active) | 2.59 µM (inactive) | 0.176 µM (active) | 1.85 µM (inactive) | 5.32 µM (inactive) | 0.232 µM (active) | 0.242 µM (active) | 5.87 µM | 0.631 µM (active) | 6.95 µM (inactive) | 2.96 µM (inactive) | 1.74 µM (inactive) | 0.802 µM (active) | 2.07 µM (inactive) | 1.09 µM (active) | 0.494 µM (active)
CCOC(=O)C(Cc1cn(S(=O)(=O)c2ccc(C)cc2)cn1)P(=O)(OCC)OCC (centres undefined) | > 100 µM (inactive) | > 100 µM (inactive) | > 100 µM (inactive) | > 100 µM (inactive) | > 100 µM (inactive) | > 100 µM (inactive) | > 100 µM (inactive) | > 100 µM (inactive) | > 100 µM (inactive) | > 100 µM (inactive) | > 100 µM (inactive) | > 100 µM | > 100 µM (inactive) | > 100 µM (inactive) | > 100 µM (inactive) | > 100 µM (inactive) | > 100 µM (inactive) | > 100 µM (inactive) | > 100 µM (inactive) | > 100 µM (inactive)
CCCC(=O)O[C@H]1C=C2C[C@@]34SS[C@]5(CC6=C[C@H](OC(C)=O)[C@@H]7O[C@@H]7[C@H]6N5C3=O)C(=O)N4[C@@H]2[C@H]2O[C@H]21 | 0.0569 µM (active) | 0.00524 µM (active) | 0.0186 µM (active) | 0.00923 µM (active) | 0.00644 µM (active) | 0.0132 µM (active) | 0.00548 µM (active) | 0.0175 µM (active) | < 0.005 µM (active) | < 0.005 µM (active) | 0.0353 µM (active) | 0.0224 µM | 0.01 µM (active) | 0.0347 µM (active) | 0.0128 µM (active) | 0.02 µM (active) | 0.0116 µM (active) | 0.00738 µM (active) | 0.12 µM (active) | 0.0137 µM (active)
CN(NC(=O)/C(=C\c1ccco1)NC(=O)c1ccccc1)c1cn[nH]c(=O)c1Cl | > 100 µM (inactive) | 21.1 µM (inactive) | > 100 µM (inactive) | 60.1 µM (inactive) | 42.7 µM (inactive) | > 100 µM (inactive) | 45.9 µM (inactive) | > 100 µM (inactive) | 29.9 µM (inactive) | 41.3 µM (inactive) | 23.4 µM (inactive) | 57.3 µM | 64.3 µM (inactive) | > 100 µM (inactive) | 50.2 µM (inactive) | 39.3 µM (inactive) | 24.6 µM (inactive) | 27.9 µM (inactive) | 29.7 µM (inactive) | > 100 µM (inactive)
CONC(C)=O | > 100 µM (inactive) | > 100 µM (inactive) | > 100 µM (inactive) | > 100 µM (inactive) | > 100 µM (inactive) | > 100 µM (inactive) | > 100 µM (inactive) | > 100 µM (inactive) | > 100 µM (inactive) | > 100 µM (inactive) | > 100 µM (inactive) | > 100 µM | > 100 µM (inactive) | > 100 µM (inactive) | > 100 µM (inactive) | > 100 µM (inactive) | > 100 µM (inactive) | > 100 µM (inactive) | > 100 µM (inactive) | > 100 µM (inactive)
CCOC(=O)/C(=C\c1ccc(F)cc1)C(C)=O | 35 µM (inactive) | 21.8 µM (inactive) | 21.6 µM (inactive) | 30.3 µM (inactive) | 29.2 µM (inactive) | 29.4 µM (inactive) | 16.5 µM (inactive) | 24.3 µM (inactive) | 19 µM (inactive) | 22.3 µM (inactive) | 25.1 µM (inactive) | 20.7 µM | 38.9 µM (inactive) | 21.6 µM (inactive) | 35.6 µM (inactive) | 19.2 µM (inactive) | 26.3 µM (inactive) | 32.8 µM (inactive) | 24.4 µM (inactive) | 36 µM (inactive)
COC(=O)[C@@H]1c2cc3c(c(O)c2[C@@H](OC2OC(C)C(OC)C(C)(OC)C2OC)C[C@]1(C)O)C(=O)c1c(O)cc2c(c1C3=O)O[C@H]1O[C@]2(C)[C@H](O)[C@@H](N(C)C)[C@@H]1O (some centres undefined) | 0.0426 µM (active) | 0.00243 µM (active) | 0.069 µM (active) | 0.0155 µM (active) | 0.00508 µM (active) | 0.033 µM (active) | 0.00456 µM (active) | 0.0419 µM (active) | 0.00294 µM (active) | 0.00635 µM (active) | 0.00608 µM (active) | 0.247 µM | 0.0359 µM (active) | 0.0297 µM (active) | 0.299 µM (active) | 0.00453 µM (active) | 0.0114 µM (active) | 0.0351 µM (active) | 0.00849 µM (active) | 0.00629 µM (active)
O=C1OC[C@@H]2Cc3c([nH]c4ccccc34)[C@@H](c3ccc(O)cc3)N12 | > 56.8 µM (inactive) | 35.8 µM (inactive) | 23.7 µM (inactive) | 32.1 µM (inactive) | 30.1 µM (inactive) | 36.6 µM (inactive) | 54.1 µM (inactive) | 42.8 µM (inactive) | 39.1 µM (inactive) | 33.9 µM (inactive) | 17 µM (inactive) | 37.8 µM | 35.6 µM (inactive) | 34.7 µM (inactive) | 34.7 µM (inactive) | 27.2 µM (inactive) | 30.1 µM (inactive) | 17.4 µM (inactive) | 17.2 µM (inactive) | 22.4 µM (inactive)
COc1ccc(CC2NC(=O)C(NC(=O)c3c4nc5c(C(=O)NC6C(=O)NC(Cc7ccc(OC)cc7)C(=O)N7CCCC7C(=O)N(C)CC(=O)N(C)C(C(C)C)C(=O)OC6C)ccc(C)c5oc-4c(C)c(=O)c3N)C(C)OC(=O)C(C(C)C)N(C)C(=O)CN(C)C(=O)C3CCCN3C2=O)cc1 (centres undefined) (I: TY(Me)P[Sar][NMeV] / II: TY(Me)P[Sar][NMeV]; ester I:1-I:C, II:1-II:C; linker I:N-II:N via Actinocin(1to9); configuration not given here) | 0.0116 µM (active) | < 0.001 µM (active) | < 0.001 µM (active) | < 0.001 µM (active) | < 0.001 µM (active) | < 0.001 µM (active) | < 0.001 µM (active) | 0.00869 µM (active) | < 0.001 µM (active) | 0.0141 µM (active) | 0.00109 µM (active) | 0.0579 µM | 0.00681 µM (active) | 0.0351 µM (active) | 0.48 µM (active) | < 0.001 µM (active) | < 0.001 µM (active) | 0.0123 µM (active) | < 0.001 µM (active) | < 0.001 µM (active)
[O-][S+]1SC(=S)C2C=CC=NC21 (centres undefined) | 32.6 µM (inactive) | 32.1 µM (inactive) | 18.1 µM (inactive) | 20.9 µM (inactive) | 25 µM (inactive) | 17.5 µM (inactive) | > 100 µM (inactive) | > 100 µM (inactive) | 11.5 µM (inactive) | 14.5 µM (inactive) | 18.7 µM (inactive) | 17.3 µM |  | 18.1 µM (inactive) | 20.9 µM (inactive) | 17.3 µM (inactive) | > 100 µM (inactive) | 20.6 µM (inactive) | 18.8 µM (inactive) | 21.3 µM (inactive)
